Measurements: patent US12649723B2, “Carbonohydrazonoyl dicyanide compounds comprising 2 or more aryl or heteroaryl connected via linker and use thereof” (KOREA INSTITUTE OF SCIENCE AND TECHNOLOGY, priority 2020, dated 2026)

Assays:
[1] = tested on: Tau-BiFC cells; experiment: Cell viability (cytotoxicity) in tau-BiFC cells, count of stained nuclei; type: cell-based; conditions: compound 10 μM; Forskolin-only group = 100% cell viability
Protocol: (§1) In order to select novel tau protein aggregation-inhibiting substances, tau-BiFC cell model, in which formation of tau oligomers in living cells is easily observed, was used. Tau-BiFC cells were aliquoted into a 384-well plate. On the next day, the cells were treated with each of the compounds prepared according to Examples 1 to 175 at concentrations of 1 μM, 3 μM, and 10 μM, together with Forskolin (at a treatment concentration of 30 μM), which is a compound inducing tau protein aggregation by activating tau […] PKA. After 48 hours, nuclei in the cells were stained using Hoechst (at a treatment concentration of 2 μg/mL), and BiFC fluorescence intensity was automatically measured using Operetta (PerkinElmer) to count stained nuclei in each well out of the entire well plate. The group treated only with Forskolin, which induces tau protein aggregation, was set to a reference point of a 100% tau protein-aggregated state, and the effects of the compounds were confirmed using the equation “BiFC fluorescence intensity due to compound synthesized according to embodiment of present invention/(fluorescence intensity of control group treated only with Forskolin inducing tau protein aggregation−fluorescence intensity of untreated control group)×100”. Furthermore, the degree of cytotoxicity induced by the newly synthesized compound was also measured based on the 100% cell viability of the group treated only with Forskolin as a reference, and the cytotoxicity value of each compound was calculated using the equation “(number of stained nuclei in group treated with compound/number of stained nuclei in group treated with Forskolin)×100”. Based on the treatment results, substances inhibiting intracellular tau protein aggregation were selected from a series of candidate groups showing a tau protein aggregation inhibition rate of 70% or more and cell viability of 100% at a compound treatment concentration of 10 μM or more.
(§2) In order to evaluate dose-dependent tau protein aggregation inhibition effects of the compounds selected according to Experimental Example 1 on tau protein aggregation, tau-BiFC cells were treated with the selected compounds at concentrations of 0.03 μM, […], 0.3 μM, 1 μM, 3 μM, 10 μM, and 30 μM, respectively, together with Forskolin (at a treatment concentration of 30 μM), which is a tau protein aggregation inducing substance. After 48 hours, tau protein aggregation reaction and degrees of cytotoxicity were analyzed by observing images of the cells. IC50 and toxicity of the compounds were analyzed by way of nonlinear regression analysis of prism software (Graph Pad).

[2] = molecular target: T1, tau protein (Homo sapiens, UniProt P10636); experiment: Tau-BiFC cell model: inhibition of tau protein aggregation; type: cell-based; conditions: for remaining activity at 10 µM: 48 h, compound 10 μM, BiFC fluorescence, Forskolin-only group = 100% tau protein-aggregated state, read-out: Response (% @10 μM); for IC50: Tau BiFC in cells, with Forskolin 30 μM, 48 hours
T1 construct: fused on or other part: Split fluorescent-protein halves for BiFC are fused to tau; In the published tau-BiFC line these are Venus VN173 and VC155
Protocol: as §1, §2

T1 sequence (P10636 2-441 isoform P10636-8 limits assumed): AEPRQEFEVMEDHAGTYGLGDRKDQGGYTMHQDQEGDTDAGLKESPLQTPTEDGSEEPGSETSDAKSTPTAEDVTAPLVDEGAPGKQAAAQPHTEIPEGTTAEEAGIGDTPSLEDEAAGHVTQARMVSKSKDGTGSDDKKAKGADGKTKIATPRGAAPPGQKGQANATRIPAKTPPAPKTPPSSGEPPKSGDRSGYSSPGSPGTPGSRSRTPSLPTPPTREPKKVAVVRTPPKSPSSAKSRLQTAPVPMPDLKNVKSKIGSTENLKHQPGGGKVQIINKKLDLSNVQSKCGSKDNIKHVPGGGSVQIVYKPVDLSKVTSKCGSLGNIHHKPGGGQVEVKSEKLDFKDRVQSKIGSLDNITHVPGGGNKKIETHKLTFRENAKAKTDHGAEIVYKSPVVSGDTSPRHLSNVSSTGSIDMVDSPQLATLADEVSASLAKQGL

Row | SMILES | Cell viability (% @10 μM) [1] | remaining activity at 10 µM [2] | IC50 [2]
1 | Cc1ccc(NC(=O)c2ccc(NN=C(C#N)C#N)cc2)cn1 [Compound 47, (4-(6-methylpyridin-3-ylcarbamoyl)phenyl)carbonohydrazonoyl dicyanide] | 122.7% | 0% | 2.58 µM
2 | Cc1cncc(NC(=O)c2ccc(NN=C(C#N)C#N)cc2)c1 [Compound 48, (4-(5-methylpyridin-3-ylcarbamoyl)phenyl)carbonohydrazonoyl dicyanide] | 122.3% | 0% | 
3 | N#CC(C#N)=NNc1ccc(C(=O)Nc2cccnc2)cc1 [Compound 49, (4-(pyridin-3-ylcarbamoyl)phenyl)carbonohydrazonoyl dicyanide] | 117.2% | 75.9% | 
4 | N#CC(C#N)=NNc1ccc(C(=O)Nc2cncnc2)cc1 [Compound 50, (4-(pyrimidin-5-ylcarbamoyl)phenyl)carbonohydrazonoyl dicyanide] | 116.4% | 86.6% | 
5 | COc1cc(C(=O)Nc2cnc(C)cn2)ccc1NN=C(C#N)C#N [Compound 51, (2-methoxy-4-(5-methylpyrazin-2-ylcarbamoyl)phenyl)carbonohydrazonoyl dicyanide] | 107.1% | 45.4% | 
6 | Cc1cnc(NC(=O)c2ccc(NN=C(C#N)C#N)cc2C)cn1 [Compound 52, (3-methyl-4-(5-methylpyrazin-2-ylcarbamoyl)phenyl)carbonohydrazonoyl dicyanide] | 120.2% | 24% | 
7 | Cc1ccc(NC(=O)c2ccc(NN=C(C#N)C#N)cc2C)cn1 [Compound 53, (3-methyl-4-(6-methylpyridin-3-ylcarbamoyl)phenyl)carbonohydrazonoyl dicyanide] | 116.1% | 22.9% | 
8 | Cc1cncc(NC(=O)c2ccc(NN=C(C#N)C#N)cc2C)n1 [Compound 54, (3-methyl-4-(6-methylpyrazin-2-ylcarbamoyl)phenyl)carbonohydrazonoyl dicyanide] | 116% | 8.3% | 
9 | Cc1ccc(NC(=O)c2ccc(NN=C(C#N)C#N)c(C)c2)cn1 [Compound 55, (2-methyl-4-(6-methylpyridin-3-ylcarbamoyl)phenyl)carbonohydrazonoyl dicyanide] | 116.1% | 65.6% | 
10 | Cc1cnc(NC(=O)c2ccc(NN=C(C#N)C#N)c(F)c2)cn1 [Compound 56, (2-fluoro-4-(5-methylpyrazin-2-ylcarbamoyl)phenyl)carbonohydrazonoyl dicyanide] | 129.9% | 0% | 1.85 µM
11 | COc1cc(C(=O)Nc2ccc(C)nc2)ccc1NN=C(C#N)C#N [Compound 57, (2-methoxy-4-(6-methylpyridin-3-ylcarbamoyl)phenyl)carbonohydrazonoyl dicyanide] | 108.6% | 51.7% | 
12 | N#CC(C#N)=NNc1ccc(NS(=O)(=O)c2ccccc2)nc1 [Compound 58, (6-(phenylsulfonamido)pyridin-3-yl)carbonohydrazonoyl dicyanide] | 113.5% | 51.4% | 
13 | COc1ccc(S(=O)(=O)Nc2ccc(NN=C(C#N)C#N)cn2)cc1 [Compound 59, (6-(4-methoxyphenylsulfonamido)pyridin-3-yl)carbonohydrazonoyl dicyanide] | 128.2% | 74.3% | 
14 | N#CC(C#N)=NNc1ccc(NS(=O)(=O)c2cccnc2)nc1 [Compound 60, (6-(pyridin-3-sulfonamido)pyridin-3-yl)carbonohydrazonoyl dicyanide] | 116.9% | 90.2% | 
15 | Cn1cc(S(=O)(=O)Nc2ccc(NN=C(C#N)C#N)cn2)cn1 [Compound 61, (6-(1-methyl-1H-pyrazole-4-sulfonamido)pyridin-3-yl)carbonohydrazonoyl dicyanide] | 112.7% | 109% | 
16 | N#CC(C#N)=NNc1ccc(NS(=O)(=O)c2cccs2)nc1 [Compound 62, (6-(thiophene-2-sulfonamido)pyridin-3-yl)carbonohydrazonoyl dicyanide] | 116.5% | 87.3% | 

Row | SMILES | Cell viability (% @10 μM) [1] | remaining activity at 10 µM [2] | IC50 [2]
17 | Cc1ccc(S(=O)(=O)Nc2ccc(NN=C(C#N)C#N)cn2)cc1 [Compound 63, (6-(4-methylphenylsulfonamido)pyridin-3-yl)carbonohydrazonoyl dicyanide] | 136.7% | 11.5% | 
18 | N#CC(C#N)=NNc1ccc(NS(=O)(=O)c2ccc(F)cc2)nc1 [Compound 64, (6-(4-fluorophenylsulfonamido)pyridin-3-yl)carbonohydrazonoyl dicyanide] | 114.2% | 56% | 
19 | Cc1ccc(NS(=O)(=O)c2ccc(NN=C(C#N)C#N)cc2)cn1 [Compound 65, (4-(N-(6-methylpyridin-3-yl)sulfamoyl)phenyl)carbonohydrazonoyl dicyanide] | 111.4% | 72.6% | 
20 | COc1ccc(NS(=O)(=O)c2ccc(NN=C(C#N)C#N)cc2)cc1 [Compound 66, (4-(N-(4-methoxyphenyl)sulfamoyl)phenyl)carbonohydrazonoyl dicyanide] | 123.9% | 61.2% | 
21 | Cc1cnc(NS(=O)(=O)c2ccc(NN=C(C#N)C#N)cc2)cn1 [Compound 67, (4-(N-(5-methylpyrazin-2-yl)sulfamoyl)phenyl)carbonohydrazonoyl dicyanide] | 108.4% | 68.2% | 
22 | N#CC(C#N)=NNc1ccc(Oc2ccccc2)cn1 [Compound 70, (5-phenoxypyridin-2-yl)carbonohydrazonoyl dicyanide] | 94.5% | 0% | 0.31 µM
23 | N#CC(C#N)=NNc1ccc(Oc2ccccc2)c(F)c1 [Compound 71, (3-fluoro-4-phenoxyphenyl)carbonohydrazonoyl dicyanide] | 46% | 0% | 
24 | N#CC(C#N)=NNc1ccc(Oc2cccnc2)c(F)c1 [Compound 72, (3-fluoro-4-(pyridin-3-yloxy)phenyl)carbonohydrazonoyl dicyanide] | 129.5% | 0% | 1.99 µM
25 | N#CC(C#N)=NNc1ccc(Oc2ccccc2)c(C(F)(F)F)c1 [Compound 73, (4-phenoxy-3-(trifluoromethyl)phenyl)carbonohydrazonoyl dicyanide] | 49.6% | 0% | 
26 | Cc1cc(NN=C(C#N)C#N)ccc1Oc1cccnc1 [Compound 74, (3-methyl-4-(pyridin-3-yloxy)phenyl)carbonohydrazonoyl dicyanide] | 92.7% | 0% | 0.44 µM
27 | CN(N=C(C#N)C#N)c1ccc(Oc2ccccc2)cn1 [Compound 75, methyl(5-phenoxypyridin-2-yl)carbonohydrazonoyl dicyanide] | 131.4% | 102% | 
28 | CN(N=C(C#N)C#N)c1ccc(Oc2cccc(F)c2)nc1 [Compound 76, (6-(3-fluorophenoxy)pyridin-3-yl)(methyl)carbonohydrazonoyl dicyanide] | 121.7% | 79.9% | 
29 | CN(N=C(C#N)C#N)c1ccc(Oc2ccccc2)c(F)c1 [Compound 77, (3-fluoro-4-phenoxyphenyl)(methyl)carbonohydrazonoyl dicyanide] | 91.6% | 84.8% | 
30 | CN(N=C(C#N)C#N)c1ccc(Oc2ccccc2)c(C(F)(F)F)c1 [Compound 78, methyl(4-phenoxy-3-(trifluoromethyl)phenyl)carbonohydrazonoyl dicyanide] | 74% | 69.6% | 
31 | Cc1cc(NN=C(C#N)C#N)ccc1Oc1ccncc1 [Compound 79, (3-methyl-4-(pyridin-4-yloxy)phenyl)carbonohydrazonoyl dicyanide] | 115.7% | 65.9% | 
32 | N#CC(C#N)=NNc1ccc(Oc2ccncc2)c(F)c1 [Compound 80, (3-fluoro-4-(pyridin-4-yloxy)phenyl)carbonohydrazonoyl dicyanide] | 112.3% | 68% | 
